Experimental data from patent US5654411A, “Process for preparing 4-deoxyerythromycin derivatives” (Abbott Laboratories, priority 1995, dated 1997).

Tested on: smooth muscle strips isolated from rabbit small intestine
Assay: Induction of in vitro rabbit duodenal smooth muscle contraction
Details: for EC50: Oryctolagus cuniculus, rabbit duodenum longitudinal muscle, 37° C., pH 7.5, read-out: pED50 (negative logarithm of the concentration producing half of the maximal contraction) (converted); for Relative Potency: relative to erythromycin A = 1.0
Experimental: The compounds of the present invention were tested in vitro for their ability to induce contraction of smooth muscle strips isolated from rabbit small intestine using the following procedure:
Rabbits were sacrificed and 15 cm of duodenum was rapidly removed and placed in ice-cold modified Ringers solution (120 mM sodium chloride, 25 mM sodium bicarbonate, 4.7 mM potassium chloride, 1.25 mM calcium chloride, 1.20 mM magnesium sulfate and 5.6 mM glucose). The longitudinal muscle layer was separated from the circular muscle by blunt dissection and cut into strips of 10×20 mm. Double-folded strips were vertically suspended between two hooks in 10 mL tissue baths with a mechanical preload of 1 g. The upper hook was connected to an […] force transducer, and its displacement was recorded on a Grass polygraph. The tissue baths contained modified Ringers solution at 37° C. and were continuously gassed with 95% oxygen/5% carbon dioxide in order to maintain the pH at 7.5.
After a stabilization period of at least 60 minutes, a contractility dose-response series was performed by adding increasing final concentrations of methacholine (10^-7 M, 10^-6 M and 10^-5 M) in volumes of 100 μL. The bath solutions were replaced at least three times between doses.
After the methacholine dose-response series was completed, a test compound dose response curve was initiated by the same procedure used for the methacholine dose-response series, with at least five concentrations of test compound within the range of 10^-10 M to 10^-4 M. The tissues were washed repeatedly between doses, and the studies were completed by recording the contractile response to 10^-5 M methacholine to ascertain integrity of the muscle preparation. Contractile responses were expressed as percent of maximal contraction. The concentration of test compound which produces half of the maximal contraction (ED50 value) and the negative logarithm of the ED50 value (PED50) were estimated from the dose-response curves.

Row | EC50 [nM] | SMILES | Relative Potency | Endpoint (pED50) could not be obtained, potency in words (footnote a of Table 2)
1 | 50.1 | C#CC[N+](C)(C)[C@H]1C[C@@H](C)O[C@@H](O[C@@H]2[C@@H](C)[C@H](O[C@H]3C[C@@](C)(OC)C[C@H](C)O3)[C@@H](C)C(=O)O[C@H](CC)[C@H](C)[C@H](O)[C@@H](C)C3=C(C)C[C@@]2(C)O3)[C@@H]1O [Example 8, 8,9-anhydro-4"-deoxy-3'-N-propargylerythromycin B-6,9-hemiketal bromide] | 28 | 
2 | 0.00316 | CC[C@H]1OC(=O)[C@H](C)[C@@H](O[C@H]2C[C@@](C)(OC)C[C@H](C)O2)[C@H](C)[C@@H](O[C@@H]2O[C@H](C)C[C@H](N(C)CC)[C@H]2O)[C@@]2(C)CC(C)=C(O2)[C@H](C)[C@@H](O)[C@]1(C)O [Example 4, 8,9-anhydro-4"-deoxy-3'-N-desmethyl-3'-N-ethylerythromycin A-6,9-hemiketal] | 199,526 | 
3 | 17.8 | CC[C@H]1OC(=O)[C@H](C)[C@@H](O[C@H]2C[C@@](C)(OC)C[C@H](C)O2)[C@H](C)[C@@H](O[C@@H]2O[C@H](C)C[C@H](NC)[C@H]2O)[C@@]2(C)C[C@H](C)C(O2)[C@H](C)[C@@H](O)[C@]1(C)O [Example 10, 9-deoxo-3'-N-desmethyl-4",6-dideoxy-8-epi-6,9-epoxyerythromycin A] | 79 | 
4 | 23.4 | C#CC[N+](C)(C)[C@H]1C[C@@H](C)O[C@@H](O[C@@H]2[C@@H](C)[C@H](O[C@H]3C[C@@](C)(OC)C[C@H](C)O3)[C@@H](C)C(=O)O[C@H](CC)[C@@](C)(O)[C@H](O)[C@@H](C)C3O[C@]2(C)C[C@@H]3C)[C@@H]1O [Example 12, 9-deoxo-4",6-dideoxy-8-epi-6,9-epoxy-3'-N -propargylerythromycin A bromide] | 60 | 
5 | 70.8 | CC[C@H]1OC(=O)[C@H](C)[C@@H](O[C@H]2C[C@@](C)(OC)C[C@H](C)O2)[C@H](C)[C@@H](O[C@@H]2O[C@H](C)C[C@H](NC)[C@H]2O)[C@@]2(C)C[C@@H](C)C(O2)[C@H](C)[C@@H](O)[C@]1(C)O [Example 14, 9-Deoxo-4',6-Dideoxy-3'-N-Desmethyl-6,9-Epoxyerythromycin A] | 20 | 
6 | 3.89 | CC[C@H]1OC(=O)[C@H](C)[C@@H](O[C@H]2C[C@@](C)(OC)C[C@H](C)O2)[C@H](C)[C@@H](O[C@@H]2O[C@H](C)C[C@H](N(C)C)[C@H]2O)[C@@]2(C)CC(C)=C(O2)[C@H](C)[C@@H](O)[C@]1(C)O [Example 1, 8,9-Anhydro-4"-deoxyerythromycin A-6,9-hemiketal] | 363 | 
7 | 0.0055 | CC[C@H]1OC(=O)[C@H](C)[C@@H](O[C@H]2C[C@@](C)(OC)C[C@H](C)O2)[C@H](C)[C@@H](O[C@@H]2O[C@H](C)C[C@H](N(C)C)[C@H]2O)[C@@]2(C)CC(C)=C(O2)[C@H](C)[C@@H](O)[C@H]1C [Example 2, 8,9-anhydro-4"-deoxyerythromycin B-6,9-hemiketal] | 257,039 | 
8 | 0.182 | CC[C@H]1OC(=O)[C@H](C)[C@@H](O[C@H]2C[C@@](C)(OC)C[C@H](C)O2)[C@H](C)[C@@H](O[C@@H]2O[C@H](C)C[C@H](NC)[C@H]2O)[C@@]2(C)CC(C)=C(O2)[C@H](C)[C@@H](O)[C@]1(C)O [Example 3, 8,9-anhydro-4"-deoxy-3'-N-desmethyl erythromycin A-6,9-hemiketal] | 7,762 | 
9 | 0.166 | CC[C@H]1OC(=O)[C@H](C)[C@@H](O[C@H]2C[C@@](C)(OC)C[C@H](C)O2)[C@H](C)[C@@H](O[C@@H]2O[C@H](C)C[C@H](N(C)C)[C@H]2O)[C@@]2(C)C[C@@H](C)C(O2)[C@H](C)[C@@H](O)[C@]1(C)O [Example 13, 9-deoxo-4",6-dideoxy-6,9-epoxyerythromycin A] | 8,511 | 
10 | 40.7 | C#CC[N+](C)(C)[C@H]1C[C@@H](C)O[C@@H](O[C@@H]2[C@@H](C)[C@H](O[C@H]3C[C@@](C)(OC)C[C@H](C)O3)[C@@H](C)C(=O)O[C@H](CC)[C@@](C)(O)[C@H](O)[C@@H](C)C3O[C@]2(C)C[C@H]3C)[C@@H]1O [Example 16, 9-deoxo-4",6-dideoxy-6,9-epoxy-3'-N-propargylerythromycin A bromide] | 35 | 
11 |  | CC[C@H]1OC(=O)[C@H](C)[C@@H](O[C@H]2C[C@@](C)(OC)C[C@H](C)O2)[C@H](C)[C@@H](O[C@@H]2O[C@H](C)C[C@H](NC)[C@H]2O)[C@@]2(C)CC(C)=C(O2)[C@H](C)[C@@H](O)[C@H]1C [Example 6, 8,9-anhydro-4"-deoxy-3'-N-desmethylerythromycin B-6,9-hemiketal] | > 8000 | extremely high potency
12 | 22.9 | C#CC[N+](C)(C)[C@H]1C[C@@H](C)O[C@@H](O[C@@H]2[C@@H](C)[C@H](O[C@H]3C[C@@](C)(OC)C[C@H](C)O3)[C@@H](C)C(=O)O[C@H](CC)[C@@](C)(O)[C@H](O)[C@@H](C)C3=C(C)C[C@@]2(C)O3)[C@@H]1O [Example 5, 8,9-anhydro-4"-deoxy-3'-N-propargylerythromycin A-6,9-hemiketal bromide] | 62 | 

Row | SMILES | EC50 [nM] | Relative Potency | Endpoint (pED50) could not be obtained, potency in words (footnote a of Table 2)
13 | CC[C@H]1OC(=O)[C@H](C)[C@@H](O[C@H]2C[C@@](C)(OC)[C@@H](O)[C@H](C)O2)[C@H](C)[C@@H](O[C@@H]2O[C@H](C)C[C@H](N(C)C)[C@H]2O)[C@](C)(O)C[C@@H](C)C(=O)[C@H](C)[C@@H](O)[C@]1(C)O [erythromycin A, reference compound] | 1410 |  | 
